Test results: the NIST ThermoML archive (doi:10.1016/j.jct.2005.07.003)
Several values for one entry are separate records, joined by “and”; a condition that tells them apart may be missing. Equal values may be shown once. ± gives the expanded uncertainty stated by the source.

Test: activity coefficient (dimensionless); of the first substance listed, at infinite dilution; xn = mol fraction of the nth substance listed
Settings: 101 kPa, Liquid, Chromatography, x1 = 0

| SMILES | activity coefficient (288.15 K) | activity coefficient (298.15 K) | activity coefficient (313.15 K) |
| --- | --- | --- | --- |
| C=CCCCCC [1-heptene] + CCCCCCCC[n+]1ccn(C)c1.COCCOCCOS(=O)(=O)[O-] | 10.3 and 10.8 | 10.5 and 10.1 | 8.51 and 9.33 |
| C#CCCCCC [1-heptyne] + CCCCCCCC[n+]1ccn(C)c1.COCCOCCOS(=O)(=O)[O-] | 5.69 and 5.38 | 4.92 and 5.11 | 4.7 and 4.67 |
| c1ccccc1 [benzene] + CCCCCCCC[n+]1ccn(C)c1.COCCOCCOS(=O)(=O)[O-] | 1.33 ± 0.14 | 1.33 and 1.46 | 1.37 and 1.35 |
| C1CCCCCC1 [cycloheptane] + CCCCCCCC[n+]1ccn(C)c1.COCCOCCOS(=O)(=O)[O-] | 9.65 and 10.1 | 9.02 and 8.83 | 7.53 and 7.45 |
| C1CCCCC1 [cyclohexane] + CCCCCCCC[n+]1ccn(C)c1.COCCOCCOS(=O)(=O)[O-] | 8.52 and 8.34 | 7.86 ± 0.83 | 6.83 and 6.79 |
| C1CCCCCCC1 [cyclooctane] + CCCCCCCC[n+]1ccn(C)c1.COCCOCCOS(=O)(=O)[O-] | 11.2 and 10.3 |  | 8.74 and 8.65 |
| C1CCCC1 [cyclopentane] + CCCCCCCC[n+]1ccn(C)c1.COCCOCCOS(=O)(=O)[O-] | 6.4 and 6.14 | 5.1 and 5.86 | 5.24 and 5.16 |

Now from value to compound:

| activity coefficient (288.15 K) | activity coefficient (298.15 K) | activity coefficient (313.15 K) | SMILES |
| --- | --- | --- | --- |
| 17.9 and 17.4 | 16.4 and 16 | 13.5 and 13.3 | CCCCCCC [heptane] + CCCCCCCC[n+]1ccn(C)c1.COCCOCCOS(=O)(=O)[O-] |
| 8.61 and 8.47 | 8.14 and 8.33 | 7.47 and 7.74 | C=CCCCC [hex-1-ene] + CCCCCCCC[n+]1ccn(C)c1.COCCOCCOS(=O)(=O)[O-] |
| 14 ± 1.5 | 12.8 and 12.9 | 11.9 and 11.8 | CCCCCC [hexane] + CCCCCCCC[n+]1ccn(C)c1.COCCOCCOS(=O)(=O)[O-] |
| 0.37 and 0.44 | 0.38 ± 0.05 | 0.36 and 0.38 | CO [methanol] + CCCCCCCC[n+]1ccn(C)c1.COCCOCCOS(=O)(=O)[O-] |
| 13.7 and 14 | 13.1 and 13.2 | 12 and 11.4 | C=CCCCCCC [oct-1-ene] + CCCCCCCC[n+]1ccn(C)c1.COCCOCCOS(=O)(=O)[O-] |
| 22.6 and 22.2 | 21.1 and 19.7 | 16.4 ± 1.7 | CCCCCCCC [octane] + CCCCCCCC[n+]1ccn(C)c1.COCCOCCOS(=O)(=O)[O-] |
| 12.6 and 11.6 | 10.6 and 10.3 | 10 and 9.5 | CCCCC [pentane] + CCCCCCCC[n+]1ccn(C)c1.COCCOCCOS(=O)(=O)[O-] |
